Measured values taken from EPA's ToxRefDB 2.

How the values were obtained:
rat [1] = details: Sub-acute repeat dose toxicity, Oral, Gavage/Intubation, dose end: 36 day
rat [2] = details: Sub-acute repeat dose toxicity, Oral, Gavage/Intubation, dose end: 12 day
primate = details: Sub-acute repeat dose toxicity, Oral, Gavage/Intubation, dose end: 14 day, group: systemic
rat [3] = details: Peri- and post-natal toxicity study (Segment III), Oral, Gavage/Intubation, dose end: 1 generation
dog [4] = details: Sub-acute repeat dose toxicity; beagle; Oral; Gavage/Intubation; dose end: 14 day; group: systemic; systemic / clinical chemistry / [other] / [other] + systemic / clinical chemistry / cytochrome p450, nos / cytochrome p450, nos + systemic…
rat [5] = details: Prenatal developmental toxicity study, Oral, Gavage/Intubation, dose end: 18 GD
mouse [6] = details: Subchronic oral toxicity in rodents, Gavage/Intubation, dose end: 91 day, group: systemic
dog [7] = details: Subchronic oral toxicity in nonrodent, beagle, Gavage/Intubation, dose end: 91 day, group: systemic, systemic / in life observation / clinical signs / emesis + systemic / organ weight / liver / absolute + systemic / pathology microscopic / …
mouse [8] = details: Sub-acute repeat dose toxicity, Oral, Gavage/Intubation, dose end: 14 day, group: systemic
rabbit [9] = details: Prenatal developmental toxicity study; Oral; Gavage/Intubation; dose end: 19 GD; group: maternal; reproductive / reproductive performance / aborted / aborted + reproductive / reproductive performance / resorptions / resorptions + systemic…
dog [10] = details: Subchronic oral toxicity in nonrodent, beagle, Gavage/Intubation, dose end: 91 day, group: systemic, systemic / pathology microscopic / brain / necrosis
rat [11] = details: Carcinogenicity, wistar, Oral, Feed, dose end: 24 month, group: systemic
mouse [12] = details: Subchronic oral toxicity in rodents, other, Feed, dose end: 90 day, group: systemic, systemic / clinical chemistry / cholesterol / cholesterol + systemic / clinical chemistry / triglycerides / triglycerides + systemic / organ…
rat [13] = details: Peri- and post-natal toxicity study (Segment III), sprague dawley, Oral, Gavage/Intubation, dose end: 54 PND
dog [14] = details: Chronic toxicity, beagle, Oral, Feed, dose end: 52 week, group: systemic
mouse [15] = details: Carcinogenicity, other, Oral, Feed, dose end: 18 month, group: systemic
rabbit [16] = details: Prenatal developmental toxicity study; himalayan; Oral; Gavage/Intubation; dose end: 28 GD; group: maternal; systemic / in life observation / food consumption / food consumption + systemic / organ weight / adrenal gland / absolute + systemic / organ…
rat [17] = details: Subchronic oral toxicity in rodents, wistar, [Not Specified], dose end: 3 month, group: systemic
[18] = group: maternal, reproductive / offspring survival early / dead fetuses / dead fetuses + reproductive / offspring survival early / litter viability other / …
[19] = group: maternal, reproductive / offspring survival early / dead fetuses / dead fetuses + reproductive / reproductive performance / gestational length / …
[20] = group: systemic, systemic / in life observation / body weight / body weight gain + systemic / in life observation / body weight / offspring (pup) weight + …
[21] = group: systemic, systemic / in life observation / clinical signs / [other] + systemic / in life observation / clinical signs / body cold to touch + systemic…
[22] = group: maternal, reproductive / offspring survival early / litter size / litter size + reproductive / reproductive performance / postimplantation loss / …
[23] = group: systemic, systemic / in life observation / body weight / body weight gain + systemic / in life observation / clinical signs / emaciation + systemic / …
[24] = systemic / hematology / erythrocyte (rbc) count differential / erythrocyte (rbc) + systemic / hematology / hematocrit (hct) / hematocrit (…
[25] = systemic / in life observation / body weight / body weight + systemic / in life observation / clinical signs / [other] + systemic / in life …
[26] = group: maternal, reproductive / offspring survival early / dead fetuses / dead fetuses + reproductive / reproductive performance / dystocia / dystocia + …
[27] = group: maternal, reproductive / offspring survival early / litter size / litter size
[28] = group: parental, systemic / in life observation / clinical signs / body cold to touch + systemic / in life observation / clinical signs / cannibalism + …
[29] = group: parental, systemic / in life observation / clinical signs / body cold to touch + systemic / in life observation / clinical signs / dehydration + …
[30] = group: developmental, developmental / developmental malformation / bone / delayed ossification + developmental / developmental malformation / bone / [other] + …
[31] = group: maternal, systemic / in life observation / body weight / body weight gain + systemic / in life observation / clinical signs / abnormal feces + …
[32] = systemic / clinical chemistry / [other] / [other] + systemic / hematology / leukocyte (wbc) count differential / leukocyte (wbc) + systemic…
[33] = systemic / clinical chemistry / [other] / [other] + systemic / clinical chemistry / cytochrome p450, nos / cytochrome p450, nos + systemic…
[34] = systemic / pathology microscopic / liver / eosinophilic focus + systemic / pathology microscopic / lung / foam cell aggregation
[35] = systemic / pathology microscopic / liver / eosinophilic focus + systemic / pathology microscopic / lung / foam cell aggregation + systemic…
[36] = group: developmental, developmental / developmental landmark / preputial separation / preputial separation
[37] = group: parental, systemic / organ weight / [other] / absolute + systemic / organ weight / adrenal gland / absolute + systemic / organ weight / prostate / …
[38] = group: parental, systemic / pathology gross / kidney / dilatation
[39] = systemic / hematology / reticulocyte / reticulocyte + systemic / organ weight / adrenal gland / absolute + systemic / organ weight / adrenal…
[40] = systemic / organ weight / adrenal gland / relative to body weight + systemic / organ weight / brain / relative to body weight + systemic / …
[41] = systemic / organ weight / kidney / nos + systemic / organ weight / prostate / nos + systemic / organ weight / adrenal gland / nos + systemic…
[42] = systemic / organ weight / prostate / nos + systemic / organ weight / adrenal gland / nos + systemic / organ weight / epididymis / nos + …

`CC(C)(C)c1cc(/C=C2\SC(N)=NC2=O)cc(C(C)(C)C)c1O.CS(=O)(=O)O` [Darbufelone mesylate] was tested, and the LOAEL (rat [1]; [18]) was > 25 mg/kg/day, the NOAEL (rat [1]; [18]) was ≥ 25 mg/kg/day and the LEL (rat [1]; [19]) was 5 mg/kg/day. The NEL (rat [1]; [19]) was < 5 mg/kg/day, the LOAEL (rat [1]; [20]) was > 25 mg/kg/day and the NOAEL (rat [1]; [20]) was ≥ 25 mg/kg/day. For the same compound, the LEL (rat [1]; [21]) was 5 mg/kg/day, the NEL (rat [1]; [21]) was < 5 mg/kg/day and the LEL (rat [2]; [22]) was 75 mg/kg/day. For the same compound, the LOAEL (rat [2]; [22]) was > 75 mg/kg/day, the NEL (rat [2]; [22]) was 50 mg/kg/day and the NOAEL (rat [2]; [22]) was ≥ 75 mg/kg/day. For the same compound, the LOAEL (rat [2]; [23]) was > 75 mg/kg/day, the NEL (rat [2]; [23]) was 10 mg/kg/day and the NOAEL (rat [2]; [23]) was ≥ 75 mg/kg/day. For the same compound, the LOAEL (primate; [24]) was > 1000 mg/kg/day, the NOAEL (primate; [24]) was ≥ 1000 mg/kg/day and the LEL (primate; [25]) was 100 mg/kg/day. The NEL (primate; [25]) was < 100 mg/kg/day, the LEL (rat [3]; [26]) was 1 mg/kg/day and the NEL (rat [3]; [26]) was < 1 mg/kg/day. For the same compound, the LOAEL (rat [3]; [27]) was > 2 mg/kg/day, the NOAEL (rat [3]; [27]) was ≥ 2 mg/kg/day and the LEL (rat [3]; [28]) was 1 mg/kg/day. The NEL (rat [3]; [28]) was < 1 mg/kg/day, the LOAEL (rat [3]; [29]) was > 2 mg/kg/day and the NOAEL (rat [3]; [29]) was ≥ 2 mg/kg/day. For the same compound, the LEL (dog [4]) was 2 mg/kg/day, the LOAEL (dog [4]) was > 5 mg/kg/day and the NEL (dog [4]) was < 2 mg/kg/day. For the same compound, the NOAEL (dog [4]) was ≥ 5 mg/kg/day, the LOAEL (rat [5]; [30]) was > 75 mg/kg/day and the NOAEL (rat [5]; [30]) was ≥ 75 mg/kg/day. For the same compound, the LOAEL (rat [5]; [31]) was > 75 mg/kg/day, the NOAEL (rat [5]; [31]) was ≥ 75 mg/kg/day and the LOAEL (mouse [6]; [32]) was > 300 mg/kg/day. For the same compound, the NOAEL (mouse [6]; [32]) was ≥ 300 mg/kg/day, the NEL (mouse [6]; systemic / clinical chemistry / protein / protein) was < 35 mg/kg/day and the LEL (dog [7]) was 2 mg/kg/day. For the same compound, the LOAEL (dog [7]) was > 10 mg/kg/day, the NEL (dog [7]) was < 2 mg/kg/day and the NOAEL (dog [7]) was ≥ 10 mg/kg/day. The LOAEL (mouse [8]; [33]) was > 800 mg/kg/day, the NOAEL (mouse [8]; [33]) was ≥ 800 mg/kg/day and the NEL (mouse [8]; systemic / organ weight / liver / absolute) was < 35 mg/kg/day. The LOAEL (rabbit [9]) was > 35 mg/kg/day, the NOAEL (rabbit [9]) was ≥ 35 mg/kg/day and the LEL (dog [10]) was 2 mg/kg/day. The NEL (dog [10]) was < 2 mg/kg/day.
In the case of `C=CC1(C)OC(=O)N(c2cc(Cl)cc(Cl)c2)C1=O` (stereo unspecified) [Vinclozolin], the LOAEL (rat [11]; [34]) is reported as 2.3 mg/kg/day, the NOAEL (rat [11]; [34]) is reported as < 2.3 mg/kg/day and the LEL (rat [11]; [35]) is reported as 2.3 mg/kg/day. For the same compound, the NEL (rat [11]; [35]) was < 2.3 mg/kg/day, the LEL (mouse [12]) was 230 mg/kg/day and the LOAEL (mouse [12]) was 230 mg/kg/day. It also gave an NEL (mouse [12]) of 20 mg/kg/day, an NOAEL (mouse [12]) of 20 mg/kg/day and an LEL (rat [13]; [36]) of 10 mg/kg/day. The LOAEL (rat [13]; [36]) was > 100 mg/kg/day, the NEL (rat [13]; [36]) was < 10 mg/kg/day and the NOAEL (rat [13]; [36]) was ≥ 100 mg/kg/day. For the same compound, the LOAEL (rat [13]; [37]) was > 100 mg/kg/day, the NOAEL (rat [13]; [37]) was ≥ 100 mg/kg/day and the LEL (rat [13]; [38]) was 10 mg/kg/day. The NEL (rat [13]; [38]) was < 10 mg/kg/day, the LOAEL (dog [14]; [39]) was 47 mg/kg/day and the NEL (dog [14]; [39]) was 2.4 mg/kg/day. The NOAEL (dog [14]; [39]) was 4.8 mg/kg/day, the LEL (dog [14]; systemic / organ weight / adrenal gland / absolute + systemic / organ weight / adrenal gland / relative to body weight + systemic / clinical…) was 4.8 mg/kg/day and the LOAEL (mouse [15]; systemic / in life observation / body weight / body weight gain) was 20.6 mg/kg/day. The LEL (mouse [15]; [40]) was 2.1 mg/kg/day, the NEL (mouse [15]; [40]) was < 2.1 mg/kg/day and the NOAEL (mouse [15]; [40]) was 2.1 mg/kg/day. For the same compound, the LEL (rabbit [16]) was 200 mg/kg/day, the LOAEL (rabbit [16]) was 200 mg/kg/day and the NEL (rabbit [16]) was 50 mg/kg/day. The NOAEL (rabbit [16]) was 50 mg/kg/day, the LOAEL (rat [17]; [41]) was > 225 mg/kg/day and the NOAEL (rat [17]; [41]) was ≥ 225 mg/kg/day. The LEL (rat [17]; [42]) was 50 mg/kg/day and the NEL (rat [17]; [42]) was < 50 mg/kg/day.
